Values of other authors, collected in patent US7534771B2, “Tricyclic-nucleoside prodrugs for treating viral infections” (SmithKline Beecham Corporation, priority 2005, dated 2009).

Conditions: patients treated at currently recommended doses

NC(=O)c1ncn([C@@H]2O[C@H](CO)[C@@H](O)[C@H]2O)n1 [Ribavirin]
patients with significant hemolysis: 10-20%
